According to the SangsterLogP compilation:

Row | SMILES | logP
1 | C/C=C(/C)C1(CC)C(=O)NC(=O)NC1=O | 1.15
2 | CC/C=C(\C)C1(CC)C(=O)NC(=O)NC1=O | 1.65
3 | CC/C=C(/C)C1(CCC)C(=O)NC(=O)NC1=O | 2.15
4 | C=C(C)C1(CC)C(=O)NC(=O)NC1=O | 0.65
5 | C/C=C(\CC)C1(C(C)C)C(=O)NC(=O)NC1=O | 1.95
6 | C=C(C)C1(CC(C)C)C(=O)NC(=O)NC1=O | 1.45
7 | CC=C(CCCC)C1(CCC)C(=O)NC(=O)NC1=O | 2.65
8 | C/C=C(\CC)C1(CCC)C(=O)NC(=O)NC1=O | 2.15
9 | CC/C=C(\C)C1(C)C(=O)NC(=O)NC1=O | 1.15
10 | CC=C(CCCC)C1(C)C(=O)NC(=O)NC1=O | 2.15
11 | C/C=C(\C)C1(CCC)C(=O)NC(=O)NC1=O | 1.65
12 | C/C=C(\C)C1(C)C(=O)NC(=O)NC1=O | 0.65
13 | C=C(C)C1(CCC)C(=O)NC(=O)NC1=O | 1.15
14 | C=C(C)C1(CCCC)C(=O)NC(=O)NC1=O | 1.65
15 | CCCC=C(CC)C1(CC)C(=O)NC(=O)NC1=O | 2.65
16 | C/C=C(\CC)C1(C)C(=O)NC(=O)NC1=O | 1.15
17 | CC=C(CCC)C1(C)C(=O)NC(=O)NC1=O | 1.65
18 | C=C(C)C1(CCC(C)C)C(=O)NC(=O)NC1=O | 1.95
19 | C=CCC1(/C(C)=C/C)C(=O)NC(=O)NC1=O | 2.15
20 | CC=C(CCC)C1(CC)C(=O)NC(=O)NC1=O | 2.15
21 | C=C(C)C1(C)C(=O)NC(=O)NC1=O | 0.15
22 | C/C=C(\CC)C1(CC)C(=O)NC(=O)NC1=O | 1.65
23 | C=C(C)C1(CCCCC)C(=O)NC(=O)NC1=O | 2.15
24 | CC=C(C(C)C)C1(C)C(=O)NC(=O)NC1=O | 1.45
25 | CC/C=C(\C)C1(C(C)C)C(=O)NC(=O)NC1=O | 1.95
